Test results as given in the supplement of paper PMC10307832.

What was measured:
Assay in all cases: relative viability (nuclei count vs DMSO), 5 days (fraction); higher = more cells survive
NPK76-II-72-1 + OSI-027 = compound: CC1CC(=O)N(C2=CN=C(N=C2N1C3CCCC3)NC4=C(C=C(C=C4)C(=O)NC5CCN(CC5)C)OC)C [NPK76-II-72-1] + COc1cccc2cc(-c3nc([C@H]4CC[C@H](C(=O)O)CC4)n4ncnc(N)c34)[nH]c12 [OSI-027] (partner 0.5 µM)
Summary of the method: (§1)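 Lung cancer cell lines were pin-tool dosed in 1536-well plates on the day after seeding, with either a lone drug or a fixed anchor-drug dose plus five library-drug doses (not always all listed) in √10 steps. Nuclei were counted on 4× images after 5 days. Relative viability is the ratio of treated-well to vehicle-well nuclei counts, with each value a median of duplicate plates.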

BI-2536 + Lapatinib = compound: CC[C@@H]1C(=O)N(C)c2cnc(Nc3ccc(C(=O)NC4CCN(C)CC4)cc3OC)nc2N1C1CCCC1 [BI-2536] + CS(=O)(=O)CCNCc1ccc(-c2ccc3ncnc(Nc4ccc(OCc5cccc(F)c5)c(Cl)c4)c3c2)o1 [Lapatinib] (partner 2 µM)
Summary of the method: as §1

BI-2536 + Dasatinib = compound: CC[C@@H]1C(=O)N(C)c2cnc(Nc3ccc(C(=O)NC4CCN(C)CC4)cc3OC)nc2N1C1CCCC1 [BI-2536] + Cc1nc(Nc2ncc(C(=O)Nc3c(C)cccc3Cl)s2)cc(N2CCN(CCO)CC2)n1 [Dasatinib] (partner 0.075 µM)
Summary of the method: as §1

[1] = compound: CC1CC(=O)N(C2=CN=C(N=C2N1C3CCCC3)NC4=C(C=C(C=C4)C(=O)NC5CCN(CC5)C)OC)C [NPK76-II-72-1] + CS(=O)(=O)N1CCN(Cc2cc3nc(-c4cccc5[nH]ncc45)nc(N4CCOCC4)c3s2)CC1 [Pictilisib] (partner 1 µM)
Summary of the method: as §1

| Cell Line | relative viability (NPK76-II-72-1 + OSI-027; first compound 0.01 µM) | relative viability (NPK76-II-72-1 + OSI-027; first compound 0.03162 µM) | relative viability (NPK76-II-72-1 + OSI-027; first compound 0.1 µM) | relative viability (NPK76-II-72-1 + OSI-027; first compound 0.3162 µM) | relative viability (NPK76-II-72-1 + OSI-027; first compound 1 µM) | relative viability (BI-2536 + Lapatinib; first compound 0.01 µM) | relative viability (BI-2536 + Lapatinib; first compound 0.03162 µM) | relative viability (BI-2536 + Lapatinib; first compound 0.1 µM) | relative viability (BI-2536 + Lapatinib; first compound 0.3162 µM) | relative viability (BI-2536 + Lapatinib; first compound 1 µM) | relative viability (BI-2536 + Dasatinib; first compound 0.01 µM) | relative viability (BI-2536 + Dasatinib; first compound 0.03162 µM) | relative viability (BI-2536 + Dasatinib; first compound 0.1 µM) | relative viability (BI-2536 + Dasatinib; first compound 0.3162 µM) | relative viability (BI-2536 + Dasatinib; first compound 1 µM) | relative viability ([1]; first compound 0.01 µM) | relative viability ([1]; first compound 0.03162 µM) | relative viability ([1]; first compound 0.1 µM) | relative viability ([1]; first compound 0.3162 µM) | relative viability ([1]; first compound 1 µM) |
| --- | --- | --- | --- | --- | --- | --- | --- | --- | --- | --- | --- | --- | --- | --- | --- | --- | --- | --- | --- | --- |
| RERF-LC-KJ | 0.63 | 0.636 | 0.651 | 0.525 | 0.628 | 0.862 | 0.842 | 0.775 | 0.179 | 0.206 | 0.746 | 0.574 | 0.234 | 0.189 | 0.217 | 0.491 | 0.543 | 0.546 | 0.482 | 0.492 |
| NCI-H1650 | 0.609 | 0.716 | 0.576 | 0.414 | 0.738 | 0.775 | 0.649 | 0.176 | 0.151 | 0.124 | 0.341 | 0.321 | 0.18 | 0.159 | 0.12 | 0.569 | 0.534 | 0.596 | 0.547 | 0.649 |
| BEN | 0.285 | 0.292 | 0.273 | 0.295 | 0.318 | 0.631 | 0.578 | 0.479 | 0.228 | 0.235 | 0.34 | 0.367 | 0.248 | 0.184 | 0.199 | 0.526 | 0.551 | 0.526 | 0.606 | 0.55 |
| EMC-BAC-2 | 0.372 | 0.351 | 0.391 | 0.361 | 0.415 | 0.881 | 0.837 | 0.767 | 0.182 | 0.154 | 0.3 | 0.304 | 0.209 | 0.15 | 0.14 | 0.488 | 0.6 | 0.558 | 0.566 | 0.544 |
| LU99A | 0.309 | 0.285 | 0.241 | 0.278 | 0.299 | 0.889 | 1.07 | 0.193 | 0.202 | 0.211 | 0.47 | 0.593 | 0.178 | 0.188 | 0.159 | 0.371 | 0.32 | 0.411 | 0.292 | 0.334 |
| ABC-1 | 0.422 | 0.418 | 0.343 | 0.458 | 0.492 | 1.23 | 1.39 | 1.04 | 0.643 | 0.529 | 0.519 | 0.634 | 0.211 | 0.31 | 0.231 | 0.638 | 0.8 | 0.483 | 0.678 | 0.743 |
| NCI-H2170 | 0.73 | 0.759 | 0.716 | 0.493 | 0.798 | 0.291 | 0.273 | 0.205 | 0.199 | 0.171 | 0.626 | 0.597 | 0.356 | 0.16 | 0.179 | 0.281 | 0.357 | 0.279 | – | 0.333 |
| NCI-H1299 | – | – | – | – | – | 0.933 | 0.933 | 0.69 | 0.291 | 0.235 | – | – | – | – | – | 0.79 | 0.738 | 0.839 | 0.702 | 0.777 |
| EBC-1 | – | – | – | – | – | 0.21 | 0.194 | 0.203 | 0.174 | 0.155 | – | – | – | – | – | 0.404 | 0.432 | 0.536 | 0.347 | 0.456 |
